Data published in paper PMC10980656 (CNS Drugs, 2024).
Structures can show the parent of a compound that is named as a salt. Where two headings read alike, the source gives them in different places.

Columns and labels:
healthy women and men = conditions: mild
clinical = conditions: both, human, in vivo; for AUC(0-t): AUC0–tz (geoMean); for Cmax: Cmax (geoMean), healthy subjects
[1] = repeated freeze/thaw cycles, short- (24 h) and long-term (30 day) storage; cited from earlier work
[2] = cited from earlier work
[3] = iv, 30 mg, plasma, single IV 30 mg fasudil over 30 min

Row | Compound | subjects with TEAE assessed as related to the IMP ("headache") (healthy women and men; IV treatment, one subject, recovered/resolved) | treatment emergent adverse events (TEAEs), oral treatment (healthy women and men; oral fasudil, "fatigue", not related to the IMP) | Tmax (clinical; iv, 30 mg) | AUC(0-t) (clinical; [3]) | Cmax (clinical; [3]) | Tmax (clinical; po, 30 mg) | half-life (clinical; iv) | AUC(0-inf) (clinical; iv, 30 mg, AUC0–∞ (geoMean), plasma, single IV 30 mg fasudil over 30 min) | half-life (clinical; po, 30 mg) | sample stability (human plasma) [1] | AUC0–tz LS mean ratio (oral/IV treatment) point estimate (90% CI) (both, human, in vivo) | AUC0–∞ LS mean ratio (oral/IV treatment) point estimate (90% CI) (both, human, in vivo) | hydroxyfasudil concentration after oral treatment compared with IV treatment (linear mixed-effect model of the full analysis set) | Cmax LS mean ratio (oral/IV treatment) point estimate (90% CI) (linear mixed-effects model) | serum half-life ([2]; after IV administration of fasudil) | exposure (AUC) ([2]; after IV applications (30 mg fasudil over 30 min)) | exposure (AUC) ([2]; investigational oral solution, 40 mg fasudil hydrochloride)
1 | O=S(=O)(c1cccc2cnccc12)N1CCCNCC1 [fasudil, fasudil hydrochloride, reference compound] | 7.1% | One TEAE | 22.5 min | 55.6 ng·h/mL | 101 ng/mL | 15 min |  |  |  |  |  |  |  |  |  |  | 
2 | O=S(=O)(c1cccc2c(O)nccc12)N1CCCNCC1 [hydroxyfasudil] |  |  | 45 min | 439 ng·h/mL | 108 ng/mL | 30 min | 342 min | 460 ng·h/mL | 332 min | > 94% | 64.52 (60.32–69.01) % | 64.76 (60.11–69.78) % | 65% | 102.97 (89.53–118.43) % | 100 to 200 min | 400 to 555 ng·h/mL | 300 ng·h/mL
